Columns and labels:
[1] = biological target: EGFR (human) (UniProt P00533); conditions: for IC50: mda-mb-468; for inhibition: mda-mb-468, concentration not given here
[2] = biological target: EGFR (UniProt P00533); conditions: concentration not given here
Chain of EGFR (P00533 whole entry, looked up): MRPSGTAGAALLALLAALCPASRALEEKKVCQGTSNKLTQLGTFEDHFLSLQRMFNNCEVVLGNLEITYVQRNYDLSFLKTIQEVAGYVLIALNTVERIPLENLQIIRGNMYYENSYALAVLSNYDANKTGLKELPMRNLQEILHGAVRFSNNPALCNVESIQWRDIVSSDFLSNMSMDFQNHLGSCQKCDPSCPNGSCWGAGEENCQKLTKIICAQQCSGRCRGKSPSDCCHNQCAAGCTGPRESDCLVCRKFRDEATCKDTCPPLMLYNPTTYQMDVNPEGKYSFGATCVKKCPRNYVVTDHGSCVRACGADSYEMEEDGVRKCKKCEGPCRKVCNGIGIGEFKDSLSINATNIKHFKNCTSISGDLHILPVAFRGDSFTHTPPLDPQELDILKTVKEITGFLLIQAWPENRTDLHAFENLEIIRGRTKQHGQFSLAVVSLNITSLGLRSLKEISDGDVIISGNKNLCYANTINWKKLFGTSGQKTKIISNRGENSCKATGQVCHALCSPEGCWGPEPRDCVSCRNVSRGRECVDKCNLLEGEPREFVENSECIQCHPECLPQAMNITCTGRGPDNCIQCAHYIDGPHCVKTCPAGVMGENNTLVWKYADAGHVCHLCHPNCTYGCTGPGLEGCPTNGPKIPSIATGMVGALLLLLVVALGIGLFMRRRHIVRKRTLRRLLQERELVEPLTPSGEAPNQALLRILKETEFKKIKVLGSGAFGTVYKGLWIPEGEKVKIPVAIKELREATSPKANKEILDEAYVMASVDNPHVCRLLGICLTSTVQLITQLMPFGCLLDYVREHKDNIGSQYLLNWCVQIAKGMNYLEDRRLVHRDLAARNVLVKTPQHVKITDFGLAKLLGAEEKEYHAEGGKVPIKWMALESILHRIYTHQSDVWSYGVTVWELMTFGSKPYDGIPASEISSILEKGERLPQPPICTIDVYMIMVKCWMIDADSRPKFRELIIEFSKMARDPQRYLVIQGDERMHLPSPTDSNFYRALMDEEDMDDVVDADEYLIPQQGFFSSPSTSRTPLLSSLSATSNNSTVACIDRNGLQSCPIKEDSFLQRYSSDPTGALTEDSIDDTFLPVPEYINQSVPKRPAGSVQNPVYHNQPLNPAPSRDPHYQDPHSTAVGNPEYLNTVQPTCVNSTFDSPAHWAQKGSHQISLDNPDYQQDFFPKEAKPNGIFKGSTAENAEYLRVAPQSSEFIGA

Chain of EGFR (human) (P00533 whole entry, looked up): as above

| SMILES | IC50 [1] | inhibition [2] | inhibition [1] |
| --- | --- | --- | --- |
| O=[N+]([O-])c1ccc(Nc2ccc(OCc3ccccc3)cc2)c2c(O)ncnc12 | 4.2 µM | 21.1% |  |
| O=[N+]([O-])c1ccc(N2CC=CC2)c2c(O)ncnc12 |  | 7.9% | 34.6% |
| O=[N+]([O-])c1ccc(NCc2ccccc2)c2c(O)ncnc12 |  | 5.2% | 12.1% |
| O=[N+]([O-])c1ccc(Nc2ccc(Cl)cc2)c2c(O)ncnc12 |  | 18.3% | 28.6% |
| CSCC[C@@H](Nc1ccc([N+](=O)[O-])c2ncnc(O)c12)C(=O)O |  | 5.6% | 19.9% |
| O=[N+]([O-])c1ccc(N2CCCC2)c2c(O)ncnc12 |  | 0% | 23.3% |
| O=C(O)[C@H](Nc1ccc([N+](=O)[O-])c2ncnc(O)c12)c1ccccc1 |  | 6.5% | 29.2% |

More lines, now with the values ahead:

| IC50 [1] | inhibition [2] | inhibition [1] | SMILES |
| --- | --- | --- | --- |
| 0.48 µM | 17.7% |  | O=[N+]([O-])c1ccc(Nc2ccccc2)c2c(O)ncnc12 |
|  | 0% | 15.2% | Cc1cccc(Nc2ccc([N+](=O)[O-])c3ncnc(O)c23)c1 |
|  | 3.9% | 32.3% | CCOc1ccc([N+](=O)[O-])c2ncnc(O)c12 |
|  | 28% |  | COC(=O)C#Cc1ccc([N+](=O)[O-])cc1 |
|  | 0% | 35.8% | COc1ccc([N+](=O)[O-])c2ncnc(O)c12 |
| > 10 µM | 17.1% | 32.5% | O=[N+]([O-])c1ccc(Nc2cccc(Cl)c2)c2c(O)ncnc12 |
| < 0.01 µM | 12.2% | 75.5% | COc1ccc(Nc2ccc([N+](=O)[O-])c3ncnc(O)c23)cc1 |
| 4 µM | 0% |  | Nc1ccc(Nc2ccc([N+](=O)[O-])c3ncnc(O)c23)cc1 |

Reference: the Kinase Knowledgebase extract (Sharma et al. 2016)
